Test system: rat small-intestinal brush border membrane vesicles
Experiment: Inhibitory effect on 33PO4 uptake into rat small-intestinal brush border membrane vesicles (rapid filtration method)
Format: biochemical
Conditions: 33PO4 uptake into rat small-intestinal BBMVs; test compound 1 µM; reacted for 60 seconds
Description: Brush border membrane vesicles (BBMVs) were prepared using the upper region of the small intestine of each Wistar female rat (4-5 weeks old). […] The ^33PO4 transport activity of the small-intestinal BBMVs was determined by the rapid filtration method. […] Then, ice-cold buffer C (110 mM NaCl, 1 mM KH2PO4, and 10 mM HEPES (pH 7.5)) was added to each reaction mixture, which was immediately suctionfiltered through a Millipore filter. The filter was washed with buffer C, and each sample was then dissolved in a liquid scintillator. The amount of ^33PO4 uptake into BBMVs was measured using a liquid scintillation counter. […]

Molecule	Rate of uptake inhibition (%) (1 µM)
CN1N(Cc2ccc(OCCN3CCN(CCOCCO)CC3)c(F)c2F)C(=O)C(C(=O)Nc2ccc(C(F)(F)F)cc2-c2cc(C(F)(F)F)ncn2)=C(O)C12CCC2 [Example 361]	20%
CN1N(Cc2cccc(F)c2F)C(=O)C(C(=O)Nc2ccc(Cl)cc2-c2cc(C(F)(F)F)ncn2)=C(O)C12CCC2 [Example 255]	80%
Cc1cc(NC(=O)C2=C(O)[C@H]3CCCN3N(Cc3cccc(F)c3)C2=O)c(C(F)(F)F)o1 [Example 2, (4aR)-1-[(3-Fluorophenyl)methyl]-4-hydroxy-N-[5-methyl-2-(trifluoromethyl)furan-3-yl]-2-oxo-4a,5,6,7-tetrahydropyrrolo[1,2-b]pyridazine-3-carboxamide]	19%
CC(C)[C@H]1C(O)=C(C(=O)Nc2ccc(C(F)(F)F)cc2-c2ccc(C(F)(F)F)nc2)C(=O)N(Cc2cccc(F)c2F)N1C [Example 253]	40%
CN1N(Cc2ccc(OCCN3CCOC(=O)C3)c(F)c2F)C(=O)C(C(=O)Nc2ccc(C(F)(F)F)cc2-c2cc(C(F)(F)F)ncn2)=C(O)C12CCC2 [Example 337, 8-[[2,3-Difluoro-4-[2-(2-oxomorpholin-4-yl)ethoxy]phenyl]methyl]-5-hydroxy-9-methyl-7-oxo-N-[4-(trifluoromethyl)-2-[6-(trifluoromethyl)pyrimidin-4-yl]phenyl)-8.9-diazaspiro [3. 5]non-5-ene-6-carboxamide]	47%
CN(CCOCCOCCOCCOCCOc1ccc(CN2C(=O)C(C(=O)Nc3ccc(C(F)(F)F)cc3-c3cc(C(F)(F)F)ncn3)=C(O)C3(CCCC3)N2C)c(F)c1F)C[C@@H](O)[C@H](O)[C@@H](O)[C@@H](O)CO [Example 421, 7-[[2,3-Difluoro-4-[2-[2-[2-[2-[2-[methyl-[(2R,3S,4S,5S)-2,3,4,5,6-pentahydroxyhexyl]amino]ethoxy]ethoxy]ethoxy]ethoxy]ethoxy]phenyl]methyl]-10-hydroxy-6-methyl-8-oxo-N-[4-(trifluoromethyl)-2-[6-(trifluoromethyl)pyrimidin-4-yl]phenyl]-6,7-diazaspiro[4.5]dec-9-ene-9-carboxamide]	24%
CN1N(Cc2ccc(OCCN3CCOCC3)c(F)c2F)C(=O)C(C(=O)Nc2ccc(Cl)cc2-c2ccc(C(F)(F)F)nc2)=C(O)C12CCCC2 [Example 288]	61%
CC(C)[C@H]1C(O)=C(C(=O)Nc2ccc(C(F)(F)F)cc2-c2ccc(C(F)(F)F)nc2)C(=O)N(Cc2ccc(OCCN3CCOCC3)c(F)c2F)N1C [Example 280]	50%
Cc1c(-c2cc(C(F)(F)F)ccc2NC(=O)C2=C(O)C3(CCCC3)N(C)N(Cc3ccc(OCCN4CCOCC4)c(F)c3F)C2=O)ncnc1C(F)(F)F [Example 290]	59%
C[C@]12CCCN1N(Cc1c(F)cccc1Cl)C(=O)C(C(=O)Nc1ccc(C(F)(F)F)cc1-c1ccc(C(F)(F)F)nc1)=C2O [Example 204]	87%
C[C@]12CCCN1N(Cc1cccc(F)c1F)C(=O)C(C(=O)Nc1ccc(Cl)cn1)=C2O [Example 79]	71%
CN1[C@@H](C(C)(C)C)C(O)=C(C(=O)Nc2ccc(Cl)cc2-c2cc(C(F)(F)F)ncn2)C(=O)N1Cc1cccc(F)c1F [Example 237]	51%
COCCN(C)CCOCCOCCOc1ccc(CN2C(=O)C(C(=O)Nc3ccc(C(F)(F)F)cc3-c3cc(C(F)(F)F)ncn3)=C(O)C3(CCCC3)N2C)c(F)c1F [Example 430]	29%
COc1cc(C)c(-c2cc(C(F)(F)F)ccc2NC(=O)C2=C(O)[C@@]3(C)CCCN3N(Cc3cccc(F)c3F)C2=O)cn1 [Example 80]	75%
COCCN1CCC[C@H]1COc1ccc(CN2C(=O)C(C(=O)Nc3ccc(C(F)(F)F)cc3-c3cc(C(F)(F)F)ncn3)=C(O)C3(CCC3)N2C)c(F)c1F [Example 404, 6-[[2,3-Difluoro-4-[[(2S)-1-(2-methoxyethyl)pyrrolidin-2-yl]methoxy]phenyl]methyl]-9-hydroxy-5-methyl-7-oxo-N-[4-(trifluoromethyl)-2-[6-(trifluoromethyl)pyrimidin-4-yl]phenyl]-5,6-diazaspiro[3.5]non-8-ene-8-carboxamide]	43%
COc1cccc(-c2cc(C(F)(F)F)ccc2NC(=O)C2=C(O)[C@@]3(C)CCCN3N(Cc3ccc(C#CCOCCO)c(F)c3F)C2=O)c1OC [Example 137]	92%
Cc1ncc(-c2cc(C(F)(F)F)ccc2NC(=O)C2=C(O)[C@@]3(C)CCCN3N(Cc3cccc(F)c3F)C2=O)cc1C#N [Example 109, (4aR)-N-[2-(5-Cyano-6-methylpyridin-3-yl)-4-(trifluoromethyl)phenyl]-1-[(2,3-difluorophenyl)methyl]-4-hydroxy-4-methyl-2-oxo-6,7-dihydro-5H-pyrrolo[1.2-b]pyridazine-3-carboxamide]	52%
Cc1c(C#N)ncnc1-c1cc(Cl)ccc1NC(=O)C1=C(O)[C@H](C(C)(C)C)N(C)N(Cc2ccc(OCCN3CCOCC3)c(F)c2F)C1=O [Example 274]	43%

Molecule	Rate of uptake inhibition (%) (1 µM)
CN1[C@@H](C(C)(C)C)C(O)=C(C(=O)Nc2cc(F)c(Br)c(F)c2)C(=O)N1Cc1cccc(F)c1F [Example 240]	72%
C[C@]12CCCN1N(Cc1cccc(F)c1Cl)C(=O)C(C(=O)Nc1ccc(C(F)(F)F)cc1-c1ccc(C(F)(F)F)nc1)=C2O [Example 201]	77%
CC(C)[C@@H]1C(O)=C(C(=O)Nc2ccc(Cl)cc2-c2cc(C(F)(F)F)ncn2)C(=O)N(Cc2cccc(F)c2F)N1C [Example 250]	52%
C[C@]12CCCN1N(Cc1ccccc1)C(=O)C(C(=O)Nc1ccc(C(F)(F)F)cc1-c1cc(C(F)(F)F)ncn1)=C2O [Example 188]	93%
CN1N(Cc2ccc(OCCCCOC[C@H](O)CO)c(F)c2F)C(=O)C(C(=O)Nc2ccc(C(F)(F)F)cc2-c2ccc(C(F)(F)F)nc2)=C(O)C12CCCC2 [Example 387]	23%
COCCN(C)CCNc1ccc(CN2C(=O)C(C(=O)Nc3ccc(C(F)(F)F)cc3-c3cc(C(F)(F)F)ncn3)=C(O)C3(CCCC3)N2C)c(F)c1F [Example 417, 7-(2,3-Difluoro-4-((2-((2-methoxyethyl)(methyl)amino)ethyl)amino)benzyl)-10-hydroxy-6-methyl-8-oxo-N-(4-(trifluoromethyl)-2-(6-(trifluoromethyl)pyrimidin-4-yl)phenyl)-6,7-diazaspiro[4.5]dec-9-ene-9-carboxamide]	48%
CN1N(Cc2cccc(F)c2F)C(=O)C(C(=O)Nc2ccc(Cl)cc2-c2cc(C(F)(F)F)ncn2)=C(O)C12CCCC2 [Example 261]	77%
CN(C[C@H](O)[C@@H](O)[C@H](O)[C@H](O)CO)C(=O)CCOCCOCCOc1ccc(CN2C(=O)C(C(=O)Nc3ccc(C(F)(F)F)cc3-c3cc(C(F)(F)F)ncn3)=C(O)C3(CCCC3)N2C)c(F)c1F [Example 422]	29%
COCCOCCOc1ccc(CN2C(=O)C(C(=O)Nc3ccc(C(F)(F)F)cc3-c3cc(C(F)(F)F)ncn3)=C(O)C3(CCC3)N2C)c(F)c1F [Example 401]	39%
CCC1(CC)C(O)=C(C(=O)Nc2ccc(C(F)(F)F)cc2-c2ccc(C(F)(F)F)nc2)C(=O)N(Cc2ccc(OCCN3CCOCC3)c(F)c2F)N1C [Example 293]	47%
(4aS)-1-[(3-Fluorophenyl)methyl]-4-hydroxy-N-[5-methyl-2-(trifluoromethyl)furan-3-yl]-2-oxo-5,6,7,8-tetrahydro-4aH-pyrido[1,2-b]pyridazine-3-carboxamide [Example 16]	38%
CN1N(Cc2ccc(OCCN3CCC(N4CCOCC4)CC3)c(F)c2F)C(=O)C(C(=O)Nc2ccc(C(F)(F)F)cc2-c2cc(C(F)(F)F)ncn2)=C(O)C12CCC2 [Example 358]	34%
Cc1c(C#N)ncnc1-c1cc(C(F)(F)F)ccc1NC(=O)C1=C(O)[C@@]2(C)CCCN2N(Cc2ccc(OCCN3CCOCC3)c(F)c2F)C1=O [Example 22, (4aR)-N-[2-(6-Cyano-5-methylpyrimidin-4-yl)-4-(trifluoromethyl)phenyl]-1-[[2,3-ditluoro-4-(2-morpholin-4-ylethoxy)phenyl]methyl]-4-hydroxy-4a-methyl-2-oxo-6,7-dihydro-5H-pyrrolo[1,2-b]pyridazine-3-carboxamide]	50%
COC(=O)c1cc(F)c(CN2C(=O)C(C(=O)Nc3ccc(C(F)(F)F)cc3-c3ccc(C(F)(F)F)nc3)=C(O)[C@@]3(C)CCCN23)c(F)c1 [Example 165, Methyl 4-[[(4aR)-4-Hydroxy-4a-methyl-2-oxo-3-[[4-(trifluoromethyl)-2-[6-(trifluoromethyl)pyridin-3-yl]phenyl]carbamoyl]-6,7-dihydro-5H-pyrrolo[1,2-b]pyridazin-1 - yl]methyl]-3,5-difluorobenzoate]	75%
C[C@]12CCCN1N(Cc1ccc(F)cc1)C(=O)C(C(=O)Nc1ccc(C(F)(F)F)cc1-c1cc(C(F)(F)F)ncn1)=C2O [Example 208]	90%
COc1cccc(-c2cc(C(F)(F)F)ccc2NC(=O)C2=C(O)[C@@]3(C)CCCN3N(Cc3ccc(CCCOCCOCCOCCO)c(F)c3F)C2=O)c1OC [Example 142]	76%
CN1N(Cc2ccc(NCCN3CCOCC3)c(F)c2F)C(=O)C(C(=O)Nc2ccc(C(F)(F)F)cc2-c2cc(C(F)(F)F)ncn2)=C(O)C12CCCC2 [Example 447]	50%
C[C@]12CCCN1N(Cc1cccc(F)c1F)C(=O)C(C(=O)Nc1ccc(C(F)(F)F)cc1-c1cc(C#N)ncn1)=C2O [Example 100]	69%
